Source: publication PMC7557242 (ACS Omega, 2020)
Where two headings read alike, the source gives them in different places.

Key:
[1] = tested on: SAs from different species; details: CSA versus HSA
plasma protein = details: cited from earlier work
human serum albumin = details: previous study, cited from earlier work
serum albumin (SA) = details: after intravenous injection, in most of the cases; cited from earlier work

CC(C)c1cccc(C(C)C)c1O [PR, 2,6-Diisopropylphenol]
difference between UC50 values [1]: 0.07
% PPB (plasma protein binding) (plasma protein): 96–98%
ΔGPBSA (human serum albumin; PR1): -23.44 kcal/mol
ΔGPBSA (human serum albumin; PR2): -19.03 kcal/mol
PR bound to SA (serum albumin (SA)): approximately 80%
